The record followed here is article PMC10761937, “Functional engineering of human iPSC‐derived parasympathetic neurons enhances responsiveness to gastrointestinal hormones” (FEBS Open Bio, 2023).

The experiment has as its system GLP1R. Nature of the experiment: cAMP accumulation assay, GLP1R‐HEK293T cells. The settings on record: 0, 0.01, 0.1, 1, 10, 100 nM GLP1, 0.5 mM IBMX, 37 °C, 30 min, cAMP ELISA, n = 3. It counts as cell-based, human. Here is the method:
HEK293T cells (Lenti‐X 293T Cell line; TaKaRa, Shiga, Japan) were maintained in Dulbecco's Modified Eagle Medium (DMEM; Fujifilm Wako Pure Chemical Industries, Osaka, Japan) supplemented with 10% fetal bovine serum (Biowest, Nuaillé, France), 1% non‐essential amino acids (NEAA) (Fujifilm Wako Pure Chemical Industries), and 1% penicillin–streptomycin (P/S) (Fujifilm Wako Pure Chemical Industries) and cultured in non‐coated culture plates at 37 °C and in an incubator with 5% CO2. The culture medium was replaced every 2–3 days. At 80–90% confluence, the cell colonies were digested into single cells using TrypLE Express (Thermo Fisher Scientific). The resulting cells were used for lentiviral transfection and agonist experiments.
Figure S1 presents the protocol used for this experiment. Lentiviral vectors were acquired from VectorBuilder (VectorBuilder Japan, Inc., Kanagawa, Japan). The mCherry expression vector (pLV‐Puro‐EF1A‐mCherry) was used as a control. pMD2.g plasmid (Addgene plasmid# 12259; RRID: Addgene 12259, Watertown, MA, USA) and psPAX2 plasmids (Addgene plasmid# 12260; RRID: Addgene 12260) were used as packaging plasmids. To produce lentiviruses, HEK293T cells were transduced with lentiviral vectors and packaging constructs containing 2 μg of lentivirus plasmids, 1 μg of pMD2.g, and 1 μg of psPAX2 plasmids using polyethyleneimine (PEI; Polysciences Inc., Warrington, PA, USA). […]
In general terms: cAMP levels reflect the balance of adenylyl cyclase and phosphodiesterase activity.

Turning to “GLP1: GLP1 (4280‐v; Peptide Institute, Inc.); GLP1 (7–37) in Ca2+ imaging (HAEGTFTSDVSSYLEGQAAKEFIAWLVKGRG; Glucagon-like peptide 1(7-37); UniProt P01275 98-128, looked up)”, the cAMP production entry is given as “increased cAMP production with increasing GLP1 concentration”.
